The values below come from patent US20250387311A1, “SCLAREOL OR SCLAREOLIDE FOR IMPROVING SCALP CONDITIONS AND HAIR GROWTH” (ISP Investments LLC, priority 2022, published 2025).

Series [1] deals with Malassezia furfur. As to the kind of experiment: Anti-fungal efficacy, germ count reduction. The class given is cell-based. The note with it: 0.12%. The method, then:
Assay of the anti-fungal efficacy of zinc pyrithione, piroctone, climbazole and sclareolide on Malassezia furfur was assayed.

The subject of series [2] is Malassezia restricta. As to the kind of experiment: Broth microdilution (MIC) assay, resazurin fluorescence. The class given is cell-based. On the procedure:
Sclareolide antifungal potential on Malassezia restricta was evaluated by the broth microdilution method.
Method: Malassezia restricta was routinely grown on modified Leeman-Notman (mLN) agar. The broth microdilution assay was performed following EUCAST guidelines (www.eucast.org) with slight modifications. Between five and ten colonies were suspended in a modified RPMI 1640 media supplemented with resazurin at a D.O (Density Optical) of 0.1. In a 96 well plate, serial dilutions of sclareolide (0.00023% to 0.12%), zinc pyrithione (0.015%-0.0023%) and Ketoconazol (0.5-0.015 μg/ml) were prepared in modified RPMI 1640. An equal volume of Malassezia restricta inoculum was added to the test samples at different concentrations. Following 48 h-60 h of incubation at 34° C., resazurin fluorescence was analyzed at 530 nm and 590 nm.
Results are presented as relative fluorescence intensity compared to DMSO control. the MIC is defined as the lowest drug concentration that inhibited growth.
A general note: Broth dilution looks for growth in wells or tubes with falling amounts of substance.

Series [3] has as its system Escherichia coli ATCC 25922. The note with it: cited from earlier work.
Series [4] concerns keratin 10. As to the kind of experiment: Keratin 10 expression in ex vivo scalp skin biopsies (immunohistochemistry). The series is classed as cell-based, human. The note with it: 0.12%. The method, then: (§1) Method: CYP27B1 was assessed by immunohistochemistry with a specific antibody. Biopsies of healthy human scalp skin in culture were treated with sclareolide diluted at 0.12% in placebo (ceraphyl 368 (Ashland) applied once a day for 48 hours topically (20 μl/biopsy). Control biopsies received only ceraphyl 368. The immunostaining was performed using paraffin sections incubated in the presence of anti-CYP27B1 antibody (rabbit monoclonal, Abcam). After an hour and a half of incubation followed by rinses, the sections were incubated in the presence of the secondary anti-rabbit antibody coupled with a fluorophore (Alexa Fluor® 488, Invitrogen). The sections were then examined under a fluorescence microscope (Nikon Eclipse Ni-E microscope). CYP27B1 expression was then observed (using NiS-AR Nikon acquisition software) and quantified by image analysis (Volocity® image analysis software, Improvision).
Method: Keratin 10 was assessed by immunohistochemistry. The protocol was the same as in example 4 with the use of anti-keratin 10 antibody (rabbit monoclonal, Abcam).

Series [5] deals with total lipids. As to the kind of experiment: Total lipid content in ex vivo scalp skin biopsies (Nile Red staining). The series is classed as cell-based, human. The note with it: 0.12%. The method, then: as §1
Method: total lipids were assessed by fluorescent staining by using the fluorescent dye Nile Red. The treatment of the biopsies was the same than in example 4. […] The sections were then examined under a fluorescence microscope (Nikon Eclipse Ni-E microscope). Red fluorescence was then observed (using NiS-AR Nikon acquisition software) and quantified by image analysis (Volocity® image analysis software, Improvision).

Series [6] deals with Enterococcus faecalis ATCC 29212. The note with it: cited from earlier work.
Series [7] concerns Pseudomonas aeruginosa ATCC 27950. The note with it: cited from earlier work.
Series [8] is described as follows: Solubility in surfactant solution (12% Sodium laureth sulfate/2% Cocamidopropyl betaine). The series is classed as physicochemical. The note with it: 12% Sodium laureth sulfate (SLES)/2% Cocamidopropyl betaine (CAPB), 1 hour stirring.
The test system of series [9] is Staphylococcus aureus ATCC 25923. The note with it: cited from earlier work.
Series [10] relates to CYP27B1. Briefly: CYP27B1 expression in ex vivo scalp skin biopsies (immunohistochemistry). The class given is cell-based, human. On the procedure:
as §1

Setting [11] is: 48 h-60 h incubation at 34° C., vs DMSO control.

Take `Cc1cc(CC(C)CC(C)(C)C)n(O)c(=O)c1` (stereo not shown) [OCT, piroctone]: in series [1], the “Reduction % (6 h)” value was 15.4% and the “Reduction % (24 h)” value was 35.30%.

Regarding zinc pyrithione [ZPT], in series [1], the “Reduction % (6 h)” value amounted to 47.4% and the “Reduction % (24 h)” value is recorded as 93.10%. In addition, the “inhibition of Malassezia restricta” value in [2] (tested in parallel at the same concentrations) was “high inhibition”.

For the compound `CC1(C)CCC[C@]2(C)[C@H]3CC(=O)O[C@]3(C)CC[C@@H]12` [sclareolide, Sclareolide], the “Reduction % (6 h)” value in [1] is reported as 38.5%. For the same compound, in [1], the “Reduction % (24 h)” value came out at 32.40%. Moreover, the “concentration at which growth of Malassezia restricta was completely inhibited (MIC)” value in [2] (setting [11]) is 0.12%. Besides, in series [2] (setting [11]), the “concentration from which growth of Malassezia restricta was significantly inhibited” value came out at 0.001875%. The antibacterial activity result in series [3], in series [6], in [7] and in series [9] was “good antibacterial activity” in each case. The “increase in keratin 10 labelling intensity” value in series [4] (48-hour treatment, compared to placebo, highly significant) is “+20%”. In series [4] (48 hours, placebo = 100%), the “Keratin 10 expression (% placebo)” value was found to be 120%. For the same compound, the “increase in lipid labelling intensity” value in series [5] (48-hour treatment, compared to placebo, significant) was “+46%”. In [5] (48 hours, placebo = 100%), the “Total lipid content (% placebo)” value was determined as 146%. The “dissolution in surfactant solution” value in [8] is listed as “could not be dissolved”. Besides, in series [10] (0.12% in ceraphyl 368, topical once a day, 48 hours, placebo = 100%), the “CYP27B1 protein expression (% placebo)” value is listed as 138%. The “increase in CYP27B1 labelling intensity” value in [10] (0.12%, 48-hour treatment, compared to placebo, very significant) was “+38%”.

As to `CC(C)(C)C(=O)C(Oc1ccc(Cl)cc1)n1ccnc1` (stereo not shown) [Climbazole, climbazole], in series [1], the “Reduction % (6 h)” value amounted to 38.5% and the “Reduction % (24 h)” value was 33.80%.
